ChEMBL document CHEMBL6127107, “Oleanolic acid derivatives against drug-resistant bacteria and fungi by multi-targets to avoid drug resistance” (Eur J Med Chem, 2024)
In brackets after ≈: the same amount, converted by molar mass. Activity calls are given as the source filed them. The calls are words filed in the database; no cut-off is given here.

Tests used:
[1] = Selectivity index, ratio of HC50 for hemolytic activity against Mianyang red blood cells (unknown origin) to MIC for antimicrobial activity against methicillin resistant Staphylococcus aureus 003; type: toxicity, cell-based, RBC; settings: read-out: Selectivity Index
[2] = tested on: Staphylococcus aureus; assay: Antibiofilm activity against methicillin-resistant Staphylococcus aureus assessed as inhibition of biofilm formation at 2 times of MIC by crystal violet staining based analysis relative to control; type: functional
[3] = tested on: Staphylococcus aureus; assay: Antimicrobial activity against methicillin-resistant Staphylococcus aureus in presence of cardiolipin; type: functional, organism-based
[4] = tested on: Staphylococcus aureus; assay: Bactericidal activity against methicillin-resistant Staphylococcus aureus; type: functional, organism-based
[5] = tested on: Staphylococcus aureus; assay: Synergistic antibacterial activity against methicillin-resistant Staphylococcus aureus assessed as fractional inhibitory concentration index in presence of ampicillin; type: functional
[6] = tested on: Staphylococcus aureus; assay: Synergistic antibacterial activity against methicillin-resistant Staphylococcus aureus assessed as fractional inhibitory concentration index in presence of streptomycin; type: functional
[7] = tested on: Staphylococcus aureus; assay: Synergistic antibacterial activity against methicillin-resistant Staphylococcus aureus assessed as fractional inhibitory concentration index in presence of chlorpromazine; type: functional
[8] = tested on: Staphylococcus aureus; assay: Antimicrobial activity against methicillin-resistant Staphylococcus aureus in presence of peptidoglycan; type: functional, organism-based
[9] = tested on: Staphylococcus aureus; assay: Synergistic antibacterial activity against methicillin-resistant Staphylococcus aureus assessed as fractional inhibitory concentration index in presence of azithromycin; type: functional
[10] = tested on: Cell membrane; assay: Disruption of cell membrane integrity in methicillin-resistant Staphylococcus aureus assessed as nucleic acid leakage by absorbance based analysis; type: subcellular
[11] = tested on: HEK-293T; assay: Cytotoxicity against HEK293T cells at 64 microg/ml by MTT assay; type: toxicity, cell-based; settings: human, dose 64 µg/ml
[12] = tested on: Staphylococcus aureus; assay: Synergistic antibacterial activity against methicillin-resistant Staphylococcus aureus assessed as fractional inhibitory concentration index in presence of chloramphenicol; type: functional
[13] = tested on: Candida albicans; assay: Antimicrobial activity against fluconazole-resistant Candida albicans; type: functional
[14] = tested on: Staphylococcus aureus; assay: Antimicrobial activity against methicillin-resistant Staphylococcus aureus in presence of phosphatidylethanolamine; type: functional, organism-based
[15] = tested on: Pseudomonas aeruginosa; assay: Antimicrobial activity against Pseudomonas aeruginosa; type: functional
[16] = tested on: Staphylococcus aureus; assay: Antibacterial activity against methicillin-resistant Staphylococcus aureus in presence of DNA; type: functional, organism-based
[17] = tested on: DNA; assay: Binding affinity to methicillin-resistant Staphylococcus aureus DNA assessed as inhibition of DNA migration at 75 microg/ml by electrophoretic analysis; type: nucleic-acid assay; settings: dose 75.0 µg/ml
[18] = tested on: Escherichia coli; assay: Antimicrobial activity against Escherichia coli; type: functional
[19] = tested on: Staphylococcus aureus; assay: Antibiofilm activity against methicillin-resistant Staphylococcus aureus assessed as reduction in number of live cells at 8 times of MIC (reference value: 7.79 log10CFU/ml); type: functional
[20] = tested on: Staphylococcus aureus; assay: Selectivity ratio of MBEC for methicillin-resistant Staphylococcus aureus to MIC for methicillin resistant Staphylococcus aureus; type: functional
[21] = tested on: Staphylococcus aureus; assay: Synergistic antibacterial activity against methicillin-resistant Staphylococcus aureus assessed as fractional inhibitory concentration index in presence of ceftriaxone; type: functional
[22] = tested on: Staphylococcus aureus; assay: Antimicrobial activity against Staphylococcus aureus 10; type: functional
[23] = tested on: DNA; assay: Binding affinity to methicillin-resistant Staphylococcus aureus DNA assessed as effect on helical structure by measuring change in positive and negative peaks at 10 to 40 microg/ml by CD spectra; type: nucleic-acid assay; settings: dose 10-40 µg/ml
[24] = tested on: Mitochondrial membrane; assay: Induction of mitochondrial membrane depolarization in methicillin-resistant Staphylococcus aureus assessed as increase in fluorescence intensity at 1 to 8 times of MIC by DiSC3(5) staining based analysis; type: cell membranes
[25] = tested on: Staphylococcus aureus; assay: Antimicrobial activity against Staphylococcus aureus 31; type: functional
[26] = tested on: Staphylococcus aureus; assay: Antimicrobial activity against methicillin-resistant Staphylococcus aureus 011; type: functional
[27] = tested on: Staphylococcus aureus; assay: Antibacterial activity against methicillin-resistant Staphylococcus aureus at sub-MIC measured after 20 days of continuous passage; type: functional, organism-based; settings: time 20.0 day
[28] = tested on: Cell membrane; assay: Disruption of cell membrane integrity in Candida albicans; type: subcellular
[29] = tested on: Cell membrane; assay: Disruption of cell membrane integrity in methicillin-resistant Staphylococcus aureus assessed as increase in ROS level at 2 to 8 times of MIC incubated for 1 hrs; type: subcellular
[30] = tested on: DNA; assay: Binding affinity to methicillin-resistant Staphylococcus aureus DNA minor groove assessed as decrease in fluorescence by DAPI staining based analysis; type: nucleic-acid assay
[31] = tested on: Staphylococcus aureus; assay: Antimicrobial activity against methicillin-resistant Staphylococcus aureus 003; type: functional
[32] = tested on: DNA; assay: Binding affinity to methicillin-resistant Staphylococcus aureus DNA assessed as decrease in fluorescence by PI staining based analysis; type: nucleic-acid assay
[33] = tested on: Staphylococcus aureus; assay: Synergistic antibacterial activity against methicillin-resistant Staphylococcus aureus assessed as fractional inhibitory concentration index in presence of cefoxitin; type: functional
[34] = tested on: Cell membrane; assay: Disruption of cell membrane integrity in methicillin-resistant Staphylococcus aureus assessed as cell rupture at 2 to 4 times of MIC by scanning electron microscopic analysis; type: subcellular
[35] = tested on: Staphylococcus aureus; assay: Antibiofilm activity against methicillin-resistant Staphylococcus aureus assessed as decrease in biofilm density at 1 to 8 times of MIC incubated for 24 hrs by fluorescence microscopic analysis; type: functional, organism-based
[36] = tested on: Staphylococcus aureus; assay: Antimicrobial activity against Staphylococcus aureus 29; type: functional
[37] = tested on: Enterococcus faecalis; assay: Antimicrobial activity against vancomycin resistant Enterococcus faecalis ATCC 51299; type: functional
[38] = Hemolytic activity against Mianyang red blood cells (unknown origin); type: toxicity, cell-based, RBC
[39] = tested on: Staphylococcus aureus; assay: Synergistic antibacterial activity against methicillin-resistant Staphylococcus aureus assessed as fractional inhibitory concentration index in presence of lincomycin hydrochloride; type: functional
[40] = tested on: Staphylococcus aureus; assay: Bactericidal activity against methicillin-resistant Staphylococcus aureus assessed as eradication of bacterial growth at 4 times of MIC measured within 6 hrs relative to control; type: functional
[41] = tested on: Staphylococcus aureus; assay: Antibiofilm activity against methicillin-resistant Staphylococcus aureus assessed as decrease in biofilm biomass at 1 to 8 times of MIC by crystal violet staining based analysis; type: functional, organism-based
[42] = tested on: Cell membrane; assay: Disruption of cell membrane integrity in methicillin-resistant Staphylococcus aureus assessed as cell deformation at 2 to 4 times of MIC by scanning electron microscopic analysis; type: subcellular
[43] = tested on: Cell membrane; assay: Disruption of cell membrane integrity in methicillin-resistant Staphylococcus aureus assessed as increase in PI fluorescence at 2 to 8 times of MIC by PI staining based fluorescence analysis; type: subcellular
[44] = tested on: Staphylococcus aureus; assay: Synergistic antibacterial activity against methicillin-resistant Staphylococcus aureus assessed as fractional inhibitory concentration index in presence of fluconazole; type: functional
[45] = tested on: Staphylococcus aureus; assay: Antibacterial activity against methicillin-resistant Staphylococcus aureus assessed as inhibition of bacterial growth at 1 times of MIC; type: functional, organism-based
[46] = tested on: Staphylococcus aureus; assay: Synergistic antibacterial activity against methicillin-resistant Staphylococcus aureus assessed as fractional inhibitory concentration index in presence of vancomycin; type: functional
[47] = tested on: DNA; assay: Binding affinity to methicillin-resistant Staphylococcus aureus DNA assessed as change in DNA conformation by UV absorption based analysis; type: nucleic-acid assay
[48] = tested on: DNA; assay: Binding affinity to […] methicillin-resistant Staphylococcus aureus DNA assessed as inhibition of DNA migration by electrophoretic analysis; type: nucleic-acid assay

Q: Which selectivity ratio [1] does the source give for `CC1(C)CC[C@]2(C(=O)O)CC[C@]3(C)C(=CC[C@@H]4[C@@]5(C)CC[C@H](OCC(O)CCCNC(=N)N)C(C)(C)[C@@H]5CC[C@]43C)[C@@H]2C1` (stereo partly drawn) here?
A: < 390

Q: What about the “inhibition (INH)” value [2] of the same compound?
A: >80%

Q: What about the Activity [3] of the same compound?
A: inactive

Q: What about the Activity [4] of the same compound?
A: Active

Q: What about the “fractional inhibitory concentration index (FICI)” value [5] of the same compound?
A: <=0.5

Q: And the “fractional inhibitory concentration index (FICI)” value [6]?
A: 0.25

Q: And the “fractional inhibitory concentration index (FICI)” value [7]?
A: <=0.5

Q: What about the Activity [8] of the same compound?
A: Active

Q: And the “fractional inhibitory concentration index (FICI)” value [9]?
A: <=0.5

Q: And the Activity [10]?
A: Active

Q: What about the Activity [11] of the same compound?
A: Non-Toxic

Q: What about the “fractional inhibitory concentration index (FICI)” value [12] of the same compound?
A: <=0.5

Q: And the MIC [13]?
A: 2 µg/mL (≈ 3.33 µM)

Q: And the Activity [14]?
A: inactive

Q: And the MIC [15]?
A: > 64 µg/mL

Q: And the Activity [16]?
A: inactive

Q: And the Activity [17]?
A: Active

Q: And the MIC [18]?
A: > 64 µg/mL

Q: And the Activity [19]?
A: 2.7 log10CFU/ml

Q: What about the selectivity ratio [20] of the same compound?
A: 16

Q: What about the “fractional inhibitory concentration index (FICI)” value [21] of the same compound?
A: <=0.5

Q: And the MIC [22]?
A: 2 µg/mL (≈ 3.33 µM)

Q: What about the Activity [23] of the same compound?
A: Active

Q: What about the Activity [24] of the same compound?
A: Dose-Dependent Effect

Q: And the MIC [25]?
A: 2 µg/mL (≈ 3.33 µM)

Q: And the MIC [26]?
A: 2 µg/mL (≈ 3.33 µM)

Q: What about the Activity [27] of the same compound?
A: Active

Q: What about the Activity [28] of the same compound?
A: Active

Q: What about the Activity [29] of the same compound?
A: Active

Q: And the Activity [30]?
A: inactive

Q: And the MIC [31]?
A: > 2 µg/mL

Q: What about the Activity [32] of the same compound?
A: Dose-Dependent Effect

Q: What about the “fractional inhibitory concentration index (FICI)” value [33] of the same compound?
A: <=0.5

Q: What about the Activity [34] of the same compound?
A: Active

Q: What about the Activity [35] of the same compound?
A: Dose-Dependent Effect

Q: And the MIC [36]?
A: 4 µg/mL (≈ 6.67 µM)

Q: What about the MIC [37] of the same compound?
A: 2 µg/mL (≈ 3.33 µM)

Q: What about the HC50 [38] of the same compound?
A: 779 µg/mL

Q: What about the “fractional inhibitory concentration index (FICI)” value [39] of the same compound?
A: <=0.5

Q: And the Activity [40]?
A: 99.99%

Q: And the Activity [41]?
A: Active

Q: What about the Activity [42] of the same compound?
A: Active

Q: And the Activity [43]?
A: Active

Q: What about the “fractional inhibitory concentration index (FICI)” value [44] of the same compound?
A: <=0.5

Q: And the Activity [45]?
A: Active

Q: And the “fractional inhibitory concentration index (FICI)” value [46]?
A: <=0.5

Q: And the Activity [47]?
A: Active

Q: What about the Activity [48] of the same compound?
A: Active
